Source: patent US10414811B2, “Protease-resistant lipidated GLP-1 analogs” (MEDIMMUNE LIMITED, priority 2015, dated 2019)
Read-outs that look alike come from different tables or passages of the source. Numbered stars: 1 amine (or outer) side, 2 acyl side, 3 side chain; on linkers, the order of the positions; unused ones are H or OH. Square brackets hold non-standard residues; d marks the D form. Side chains are listed from the residue outwards. Peptide text beside a SMILES is read from it. * marks the point of attachment. γGlu = O=C(O)[C@H](CCC(=O)[*:2])N[*:1]; Palmitoyl = CCCCCCCCCCCCCCCC(=O)*; αMeF = C[C@](N)(Cc1ccccc1)C(=O)O; αMeK = C[C@](N)(CCCCN)C(=O)O; αMeS = C[C@](N)(CO)C(=O)O; Aib = CC(C)(N)C(=O)O

Tests used:
Format in all cases: cell-based
[1] = target: T1, human glucose-dependent insulinotropic peptide receptor (GIPR) (Homo sapiens, UniProt P48546); test: cAMP assay, human GIPR cells; conditions: cAMP assay
T1 construct: expressed in transfected cells
T1 sequence (P48546 22-466): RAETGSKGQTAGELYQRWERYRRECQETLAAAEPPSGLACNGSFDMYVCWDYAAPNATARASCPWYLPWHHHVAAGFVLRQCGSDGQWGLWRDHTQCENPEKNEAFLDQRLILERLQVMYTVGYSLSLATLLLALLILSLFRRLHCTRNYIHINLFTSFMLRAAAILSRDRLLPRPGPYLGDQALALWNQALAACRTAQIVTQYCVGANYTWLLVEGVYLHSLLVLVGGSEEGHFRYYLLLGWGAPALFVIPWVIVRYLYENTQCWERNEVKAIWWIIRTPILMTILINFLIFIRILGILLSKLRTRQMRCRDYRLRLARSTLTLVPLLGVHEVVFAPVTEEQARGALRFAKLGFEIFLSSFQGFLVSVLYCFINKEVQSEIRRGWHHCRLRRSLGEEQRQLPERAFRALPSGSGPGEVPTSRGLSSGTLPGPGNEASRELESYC
Outline: (§1)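 Peptide-stimulated cAMP measured by two-step HTRF after a 30 min room-temperature incubation with receptor-expressing cells (hGLP-1R, hGIPR at 1×10^5 cells/ml; hGCGR at 2×10^5 cells/ml). Duplicate dilutions; EC50 from 4-parameter logistic fit of % Delta F.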

[2] = target: T2, human glucagon receptor (GCGR) (Homo sapiens, UniProt P47871); test: cAMP assay, human GCGR cells; conditions: cAMP assay
T2 construct: expressed in transfected cells
Outline: as §1

[3] = target: T3, human GLP-1 receptor (GLP-1R) (Homo sapiens, UniProt P43220); test: cAMP assay, human GLP-1R cells
T3 construct: expressed in transfected cells
Outline: as §1

[4] = first determination (n1), read-out: Primary assay EC50 GIP-R (n1)
[5] = second determination (n2), read-out: Primary assay EC50 GIP-R (n2)
[6] = first determination (n1), read-out: Primary assay EC50 Gluc-R (n1)
[7] = second determination (n2), read-out: Primary assay EC50 Gluc-R (n2)
[8] = cAMP assay, first determination (n1), read-out: Primary assay EC50 GLP-1R n1
[9] = cAMP assay, second determination (n2), read-out: Primary assay EC50 GLP-1R n2
[10] = mean of n1 and n2, read-out: Mean pM GLP-1R

T3 sequence (P43220 24-463): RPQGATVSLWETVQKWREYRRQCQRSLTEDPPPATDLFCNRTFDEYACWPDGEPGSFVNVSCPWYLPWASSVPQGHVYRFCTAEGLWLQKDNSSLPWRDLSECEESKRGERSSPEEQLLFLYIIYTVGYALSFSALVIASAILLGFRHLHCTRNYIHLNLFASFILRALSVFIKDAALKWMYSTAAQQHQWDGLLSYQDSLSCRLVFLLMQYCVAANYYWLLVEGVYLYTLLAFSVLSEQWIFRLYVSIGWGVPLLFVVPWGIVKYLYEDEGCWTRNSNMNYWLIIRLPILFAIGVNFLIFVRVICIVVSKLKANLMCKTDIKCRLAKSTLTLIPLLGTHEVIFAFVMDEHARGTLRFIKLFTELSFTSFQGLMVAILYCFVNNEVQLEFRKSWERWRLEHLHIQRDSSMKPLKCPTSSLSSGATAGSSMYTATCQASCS
T2 sequence (P47871 26-477): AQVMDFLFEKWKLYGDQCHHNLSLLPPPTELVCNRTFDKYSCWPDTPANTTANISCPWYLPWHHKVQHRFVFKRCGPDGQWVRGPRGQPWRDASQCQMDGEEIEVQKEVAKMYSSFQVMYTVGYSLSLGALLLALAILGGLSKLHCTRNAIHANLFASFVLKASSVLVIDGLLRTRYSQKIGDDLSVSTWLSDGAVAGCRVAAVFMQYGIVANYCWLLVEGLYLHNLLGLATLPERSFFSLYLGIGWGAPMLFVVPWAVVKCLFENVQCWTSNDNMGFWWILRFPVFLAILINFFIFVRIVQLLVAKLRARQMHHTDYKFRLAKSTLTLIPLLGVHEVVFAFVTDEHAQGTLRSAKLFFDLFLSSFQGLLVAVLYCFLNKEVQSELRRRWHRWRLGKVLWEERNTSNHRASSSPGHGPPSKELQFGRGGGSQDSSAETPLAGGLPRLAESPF

| EC50 [1, 4] | EC50 [1, 5] | EC50 [2, 6] | EC50 [2, 7] | EC50 [3, 8] | EC50 [3, 9] | EC50 [3, 10] | Structure (SMILES) |
| --- | --- | --- | --- | --- | --- | --- | --- |
| ≥ 90 nM | ≥ 90 nM | ≥ 90 nM | ≥ 90 nM | 36 pM | 18 pM | 27 pM | CCCCCCCCCCCCCCCC(=O)N[C@@H](CCC(=O)NCCCC[C@H](NC(=O)CNC(=O)CNC(=O)[C@](C)(CCCCN)NC(=O)[C@@H](NC(=O)[C@@H](NC(=O)[C@](C)(Cc1ccccc1)NC(=O)[C@H](C)NC(=O)[C@@H](NC(=O)[C@](C)(Cc1ccccc1)NC(=O)[C@H](CCC(=O)O)NC(=O)[C@](C)(CCCCN)NC(=O)[C@H](C)NC(=O)[C@H](C)NC(=O)[C@H](CCC(=O)O)NC(=O)CNC(=O)[C@H](CCC(=O)O)NC(=O)[C@H](CC(C)C)NC(=O)[C@](C)(Cc1ccccc1)NC(=O)[C@H](CO)NC(=O)[C@](C)(CO)NC(=O)[C@@H](NC(=O)[C@H](CC(=O)O)NC(=O)[C@H](CO)NC(=O)[C@@H](NC(=O)[C@](C)(Cc1ccccc1)NC(=O)[C@H](CO)NC(=O)CNC(=O)[C@H](CCC(=O)O)NC(=O)C(C)(C)NC(=O)[C@@H](N)Cc1c[nH]cn1)[C@@H](C)O)C(C)C)[C@@H](C)CC)C(C)C)C(C)C)C(N)=O)C(=O)O [compound 32] (H-H[Aib]EGS[αMeF]TSDV[αMeS]S[αMeF]LEGEAA[αMeK]E[αMeF]IA[αMeF]VV[αMeK]GGK([γGlu-Palmitoyl])-NH2) |
| ≥ 27 nM | ≥ 27 nM | ≥ 27 nM | ≥ 27 nM | 28 pM | 22 pM | 25.4 pM | CCCCCCCCCCCCCCCCCC(=O)NCCCCCC(=O)NCCCCCC(=O)NCCCC[C@H](NC(=O)[C@H](C)NC(=O)[C@H](C)NC(=O)[C@H](CCC(=O)O)NC(=O)CNC(=O)[C@H](CCC(=O)O)NC(=O)[C@H](CC(C)C)NC(=O)[C@](C)(Cc1ccccc1)NC(=O)[C@H](CO)NC(=O)[C@](C)(CO)NC(=O)[C@@H](NC(=O)[C@H](CC(=O)O)NC(=O)[C@H](CO)NC(=O)[C@@H](NC(=O)[C@](C)(Cc1ccccc1)NC(=O)[C@H](CO)NC(=O)CNC(=O)[C@H](CCC(=O)O)NC(=O)C(C)(C)NC(=O)[C@@H](N)Cc1c[nH]cn1)[C@@H](C)O)C(C)C)C(=O)N[C@@H](CCC(=O)O)C(=O)N[C@@](C)(Cc1ccccc1)C(=O)N[C@H](C(=O)N[C@@H](C)C(=O)N[C@@](C)(Cc1ccccc1)C(=O)N[C@H](C(=O)N[C@H](C(=O)N[C@@](C)(CCCCN)C(=O)NCC(=O)NCC(N)=O)C(C)C)C(C)C)[C@@H](C)CC [compound 150] |
| ≥ 100 nM | ≥ 100 nM | ≥ 100 nM | ≥ 100 nM | 350 pM | 430 pM | 389 pM | CC[C@H](C)[C@H](NC(=O)[C@](C)(Cc1ccccc1)NC(=O)[C@H](CCC(=O)O)NC(=O)[C@](C)(CCCCN)NC(=O)[C@H](C)NC(=O)[C@H](C)NC(=O)[C@H](CCC(=O)O)NC(=O)CNC(=O)[C@H](CCC(=O)O)NC(=O)[C@H](CC(C)C)NC(=O)[C@](C)(Cc1ccccc1)NC(=O)[C@H](CO)NC(=O)[C@H](CO)NC(=O)[C@@H](NC(=O)[C@H](CCC(=O)O)NC(=O)[C@H](CO)NC(=O)[C@@H](NC(=O)[C@](C)(Cc1ccccc1)NC(=O)[C@H](CO)NC(=O)CNC(=O)[C@H](CCC(=O)O)NC(=O)C(C)(C)NC(=O)[C@@H](N)Cc1c[nH]cn1)[C@@H](C)O)C(C)C)C(=O)N[C@@H](C)C(=O)N[C@@](C)(Cc1ccccc1)C(=O)N[C@H](C(=O)N[C@H](C(=O)N[C@@](C)(CCCCN)C(=O)NCC(=O)NCC(N)=O)C(C)C)C(C)C [compound 7] (H-H[Aib]EGS[αMeF]TSEVSS[αMeF]LEGEAA[αMeK]E[αMeF]IA[αMeF]VV[αMeK]GG-NH2) |
